In patent US9868720B2 (Genentech, Inc., priority 2013, dated 2018):

Biological target: DLK kinase (N-terminally GST-tagged DLK, catalytic domain amino acid 1-520) (Homo sapiens (Human), UniProt Q12852)
Assay: DLK TR-FRET assay
Assay type: biochemical
Conditions: 30 μM ATP, MKK4 K131M substrate, read-out: DLK HTRF (Ki)
Method: DLK TR-FRET assay: DLK kinase reactions (20 μL) containing 5 nM N-terminally GST-tagged DLK (catalytic domain amino acid 1-520) (Carna Bioscience), 40 nM N-terminally HIS-tagged MKK4 K131M substrate, and 30 μM ATP in kinase reaction buffer (50 mM HEPES, pH 7.5, 0.01% Triton X-100, 0.01% Bovine γ-Globulins, 2 mM DTT, 10 mM MgCl2 and 1 mM EGTA), and testing compound 1:3 serial diluted starting at 20 uM were incubated at ambient temperature for 60 minutes in 384 well OptiPlate (Perkin Elmer). To quench kinase reactions and detect phosphorylated MKK4, 15 μL of TR-FRET antibody mixture containing 2 nM anti-phosphorylated MKK4 labeled with Europium cryptate (Cisbio) and 23 nM anti-HIS labeled with D2 (Cisbio) in detection buffer (25 mM Tris pH 7.5, 100 mM NaCl, 100 mM EDTA, 0.01% Tween-20, and 200 mM KF) was added to the reaction mixture. The detection mixture was incubated for 3 hours at ambient temperature and the TR-FRET was detected with an EnVision multilabel plate reader (Perkin-Elmer) using the LANCE/DELFIA Dual Enh label from Perkin-Elmer (excitation filter: UV2 (TRF) 320 and emission filters: APC 665 and Europium 615).

Chain of DLK kinase (N-terminally GST-tagged DLK, catalytic domain amino acid 1-520) (Q12852 1-520): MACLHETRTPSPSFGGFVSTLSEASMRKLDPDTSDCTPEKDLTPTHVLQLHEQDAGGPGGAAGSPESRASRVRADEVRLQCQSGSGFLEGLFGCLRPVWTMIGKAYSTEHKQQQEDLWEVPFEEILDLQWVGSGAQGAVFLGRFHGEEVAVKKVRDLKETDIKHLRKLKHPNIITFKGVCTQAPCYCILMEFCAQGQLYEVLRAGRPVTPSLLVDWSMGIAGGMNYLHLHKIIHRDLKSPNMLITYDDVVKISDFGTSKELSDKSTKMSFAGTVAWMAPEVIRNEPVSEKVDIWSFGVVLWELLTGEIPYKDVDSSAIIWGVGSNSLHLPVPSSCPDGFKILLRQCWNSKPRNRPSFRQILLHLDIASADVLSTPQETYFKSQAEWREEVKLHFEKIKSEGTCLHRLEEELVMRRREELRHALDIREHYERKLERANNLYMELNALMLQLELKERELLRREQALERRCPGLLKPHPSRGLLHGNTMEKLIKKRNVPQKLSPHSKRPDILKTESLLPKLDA

Ki | SMILES
2.2 nM | CC(=O)N1CCC(c2cc(Nc3cc(C(F)(F)F)ccn3)nc(N3CCC[C@H]3C)n2)CC1 [Example 175, 1-{4-[2-((R)-2-Methyl-pyrrolidin-1-yl)-6-(4-trifluoromethyl-pyridin-2-ylamino)-pyrimidin-4-yl]-piperidin-1-yl}-ethanone]
43.6 nM | Cc1nc(Nc2cc(C(F)(F)F)ccn2)cc(C2CCCN(C(=O)c3ccc(F)cc3)C2)n1 (stereo not shown) [Example 22, (4-Fluoro-phenyl)-{3-[2-methyl-6-(4-trifluoro-methyl-pyridin-2-ylamino)-pyrimidin-4-yl]-piperidin-1-yl}-methanone]
50 nM | Cc1ccnc(Nc2cc(C3CCN(C(=O)c4ccccc4)CC3)nc(N3CCCC3)n2)c1 [Example 25, {4-[6-(4-Methyl-pyridin-2-ylamino)-2-pyrrolidin-1-yl-pyrimidin-4-yl]-piperidin-1-yl}-phenyl-methanone]
159 nM | O=C(C1CCCO1)N1CCC(c2cc(Nc3cc(C(F)(F)F)ccn3)nc(N3CC(F)(F)C3)n2)C1 (stereo not shown) [Example 265, {3-[2-(3,3-Difluoro-azetidin-1-yl)-6-(4-trifluoro-methyl-pyridin-2-ylamino)-pyrimidin-4-yl]-pyrrolidin-1-yl}-(tetrahydro-furan-2-yl)-methanone]
4.92 nM | FC1(F)CCN(c2nc(Nc3cc(C(F)(F)F)ccn3)cc(C3CCN(Cc4cn[nH]c4)C3)n2)C1 (stereo not shown) [Example 404, {2-(3,3-Difluoro-pyrrolidin-1-yl)-6-[1-(1H-pyrazol-4-ylmethyl)-pyrrolidin-3-yl]-pyrimidin-4-yl}-(4-trifluoromethyl-pyridin-2-yl)-amine]
636 nM | CN1CCCC(c2cc(Nc3cc(C(F)(F)F)ccn3)nc(N3CC(N4CCOCC4)C3)n2)C1 (stereo not shown) [Example 371, [6-(1-Methyl-piperidin-3-yl)-2-(3-morpholin-4-yl-azetidin-1-yl)-pyrimidin-4-yl]-(4-trifluoromethyl-pyridin-2-yl)-amine]
0.5 nM | COc1cc(C)ccc1C(=O)N1CCCC(c2cc(Nc3cc(C)ccn3)nc(N3CCC(F)(F)C3)n2)C1 (stereo not shown) [Example 426, {3-[2-(3,3-Difluoro-pyrrolidin-1-yl)-6-(4-methyl-pyridin-2-ylamino)-pyrimidin-4-yl]-piperidin-1-yl}-(2-methoxy-4-methyl-phenyl)-methanone]
281 nM | CC(C)c1nc(Nc2cc(C(F)(F)F)ccn2)cc(C2CN(C3COC3)C2)n1 [Example 399, [2-Isopropyl-6-(1-oxetan 3-yl-azetidin-3-yl)-pyrimidin-4-yl]-(4-trifluoromethyl-pyridin-2-yl)-amine]
43.5 nM | FC(F)(F)c1ccnc(Nc2cc(C3CCOCC3)nc(N3CCc4nc[nH]c4C3)n2)c1 [Example 252, [2-(3,4,6,7-Tetrahydro-imidazo[4,5-c]pyridin-5-yl)-6-(tetrahydro-pyran-4-yl)-pyrimidin-4-yl]-(4-trifluoromethyl-pyridin-2-yl)-amine]
7.69 nM | CC1CCCN1c1nc(Nc2cc(C(F)(F)F)ccn2)cc(C2CCN(C(=O)Cn3ccnc3)C2)n1 (stereo not shown) [Example 204, 2-Imidazol-1-yl-1-{3-[2-(2-methyl-pyrrolidin-1-yl)-6-(4-trifluoromethyl-pyridin-2-ylamino)-pyrimidin-4-yl]-pyrrolidin-1-yl}-ethanone]
147 nM | CN1CCC(c2cc(Nc3cc(C(F)(F)F)ccn3)nc(N3CC(C#N)C3)n2)C1 (stereo not shown) [Example 328, 1-[4-(1-Methyl-pyrrolidin-3-yl)-6-(4-trifluoromethyl-pyridin-2-ylamino)-pyrimidin-2-yl]-azetidine-3-carbonitrile]
> 2100 nM | Cc1ccnc(Nc2cc(C3CCCN(Cc4cn(C)nc4C)C3)nc(C)n2)c1 (stereo not shown) [Example 38, {6-[1-(1,3-Dimethyl-1H-pyrazol-4-ylmethyl)-piperidin-3-yl]-2-methyl-pyrimidin-4-yl}-(4-methyl-pyridin-2-yl)-amine]
87.7 nM | FC(F)(F)c1ccnc(Nc2cc(C3CCOCC3)nc(N3CCn4ccnc4C3)n2)c1 [Example 253, [2-(5,6-Dihydro-8H-imidazo[1,2-a]pyrazin-7-yl)-6-(tetrahydro-pyran-4-yl)-pyrimidin-4-yl]-(4-trifluoromethyl-pyridin-2-yl)-amine]
47.5 nM | CC1CCCN1c1nc(Nc2cc(C(F)(F)F)ccn2)cc(C2CCNC(=O)C2)n1 (stereo not shown) [Example 412, 4-[2-(2-Methyl-pyrrolidin-1-yl)-6-(4-trifluoromethyl-pyridin-2-ylamino)-pyrimidin-4-yl]-piperidin-2-one]
26.7 nM | CC(=O)N1CCC(c2cc(Nc3cc(C(F)(F)F)ccn3)nc(N3CC(F)C(F)C3)n2)CC1 (stereo not shown) [Example 250, 1-{4-[2-(3,4-Difluoro-pyrrolidin-1-yl)-6-(4-trifluoromethyl-pyridin-2-ylamino)-pyrimidin-4-yl]-piperidin-1-yl}-ethanone]
97.8 nM | CC(C)c1nc(Nc2cc(C(F)(F)F)ccn2)cc(C2CCNC(=O)C2)n1 (stereo not shown) [Example 408, 4-[2-Isopropyl-6-(4-trifluoro-methyl-pyridin-2-ylamino)-pyrimidin-4-yl]-piperidin-2-one]
18.4 nM | C[C@@H]1CCCN1c1nc(Nc2cc(C(F)(F)F)ccn2)cc(-c2ccc(=O)n(C)c2)n1 [Example 331, 1-Methyl-5-[2-((R)-2-methyl-pyrrolidin-1-yl)-6-(4-trifluoromethyl-pyridin-2-ylamino)-pyrimidin-4-yl]-1H-pyridin-2-one]
15.8 nM | C[C@H]1CCCN1c1nc(Nc2cc(C(F)(F)F)ccn2)cc(C2CCNCC2)n1 [Example 112, [2-((S)-2-Methyl-pyrrolidin-1-yl)-6-piperidin-4-yl-pyrimidin-4-yl]-(4-trifluoromethyl-pyridin-2-yl)-amine]
31.8 nM | C[C@@H]1CCCN1c1nc(Nc2cc(C(F)(F)F)ccn2)cc(C2CCN(S(C)(=O)=O)CC2)n1 [Example 330, [6-(1-Methanesulfonyl-piperidin-4-yl)-2-((R)-2-methyl-pyrrolidin-1-yl)-pyrimidin-4-yl]-(4-trifluoromethyl-pyridin-2-yl)-amine]
6.12 nM | CC1CCCN1c1nc(Nc2cc(C(F)(F)F)ccn2)cc(C2CCN(C)C(=O)C2)n1 (stereo not shown) [Example 332, 1-Methyl-4-[2-(2-methyl-pyrrolidin-1-yl)-6-(4-trifluoromethyl-pyridin-2-ylamino)-pyrimidin-4-yl]-piperidin-2-one]
310 nM | Cc1ccnc(Nc2cc(C3CCCN(Cc4ccc5nccn5c4)C3)nc(C)n2)c1 (stereo not shown) [Example 49, [6-(1-Imidazo[1,2-a]pyridin-6-ylmethyl-piperidin-3-yl)-2-methyl-pyrimidin-4-yl]-(4-methyl-pyridin-2-yl)-amine]
401 nM | Cc1ccc(Nc2cc(C3CCCN(C(=O)c4ccccc4)C3)nc(C)n2)nc1 (stereo not shown) [Example 5]
141 nM | CC(C)c1nc(Nc2cc(C(F)(F)F)ccn2)cc(C2CCCN(C)C2)n1 (stereo not shown) [Example 145, [2-Isopropyl-6-(1-methyl-piperidin-3-yl)-pyrimidin-4-yl]-(4-trifluoro-methyl-pyridin-2-yl)-amine]
4.8 nM | FC(F)(F)c1ccnc(Nc2cc(C3CCNC3)nc(N3CCCC3)n2)c1 (stereo not shown) [Example 66, (2-Pyrrolidin-1-yl-6-pyr-rolidin-3-yl-pyrimidin-4-yl)-(4-trifluoromethyl-pyridin-2-yl)-amine]
47.5 nM | CC(C)Oc1nc(Nc2cc(C(F)(F)F)ccn2)cc(C2CCOCC2)n1 [Example 350, [2-Isopropoxy-6-(tetrahydro-pyran-4-yl)-pyrimidin-4-yl]-(4-trifluoromethyl-pyridin-2-yl)-amine]
16 nM | FC1(F)CCN(c2nc(Nc3cc(Cl)ccn3)cc(C3CCN(C4COC4)CC3)n2)C1 [Example 427, N-(4-chloropyridin-2-yl)-2-(3,3-difluoropyrrolidin-1-yl)-6-(1-(oxetan-3-yl)piperidin-4-yl)pyrimidin-4-amine]
31.9 nM | FC1(F)CN(c2nc(Nc3cc(C(F)(F)F)ccn3)cc(C3CCN(CC4CCOCC4)C3)n2)C1 (stereo not shown) [Example 307, {2-(3,3-Difluoro-azetidin-1-yl)-6-[1-(tetrahydro-pyran-4-ylmethyl)-pyrrolidin-3-yl]-pyrimidin-4-yl}-(4-trifluoromethyl-pyridin-2-yl)-amine]
59 nM | CC(=O)N1CCC(c2cc(Nc3cc(C)ccn3)nc(N3CCCC3)n2)C1 (stereo not shown) [Example 89, 1-{3-[6-(4-Methyl-pyridin-2-ylamino)-2-pyrrolidin-1-yl-pyrimidin-4-yl]-pyrrolidin-1-yl}-ethanone]
3.1 nM | FC1(F)CCCN(c2nc(Nc3cc(C(F)(F)F)ccn3)cc(C3CCNC3)n2)C1 (stereo not shown) [Example 96, [2-(3,3-Difluoro-piperidin-1-yl)-6-pyrrolidin-3-yl-pyrimidin-4-yl]-(4-tri-fluoromethyl-pyridin-2-yl)-amine]
3.2 nM | FC1(F)CCN(c2nc(Nc3cc(-c4cccs4)ccn3)cc(C3CCNCC3)n2)C1 [Example 201, [2-(3,3-Difluoro-pyrrolidin-1-yl)-6-piperidin-4-yl-pyrimidin-4-yl]-(4-thiophen-2-yl-pyridin-2-yl)-amine]

SMILES | Ki
FC(F)(F)c1ccnc(Nc2cc(C3CCOCC3)nc(N3C4CCC3COC4)n2)c1 [Example 251, [2-(3-Oxa-8-aza-bicyclo-[3.2.1]oct-8-yl)-6-(tetrahydro-pyran-4-yl)-pyrimidin-4-yl]-(4-trifluoro-methyl-pyridin-2-yl)-amine] | 183 nM
